Assay results: patent US8350062B2, “Synthesis and anticancer activity of new actin-targeting small-molecule agents” (priority 2009, dated 2013)

Key:
Type in all cases: cell-based, human
A549 cells = experiment: Cell viability assay (CellTiter-Glo), growth inhibition of A549 cells; conditions: 24-96 h
Procedure: Cell Viability Assays. All assays were performed using at least three replicate wells for each concentration tested. Original 10-25 mM DMSO stock solution of bistramide A or its analogs was diluted to 100 μM for analogs 4-8, 10 μM for analog 3, 5 μM for analog 2 and 1 μM for bistramide A (1) with F-12K cell culture media supplemented with 10% fetal bovine serum, 100 I.U./ml penicillin, 100 μg/ml streptomycin and 2 mM L-glutamine. Two-fold serial dilutions were performed and used for cell-based assays. A549 cells were grown in 96-well white plates at the density of 1,000 cells per well in 100 μl F-12K cell culture media. Cells were allowed to attach over 24 h and treated with 30 μl of the drug solution and incubated further for 48 h. After incubation, cell viability was determined using luminescence-based commercial kit (CellTiter-Glo, Promega) and luminescence measured using a Wallac Victor 3 plate reader. To measure cell growth inhibition, viability assays were performed twice: at initial time point T0 and after 48 h incubation (T48). Change in the number of viable cells was measured, and GI50 was calculated from sigmoidal plots. For analog 10, growth of A549 and PC3 cells was monitored over 96 h following addition of the drug. 100 μM was the highest concentration tested. At no point did the total DMSO conc. exceed 1%.

CCRF-CEM = experiment: NCI 60 cell line single dose screen; conditions: CCRF-CEM (Leukemia), 10 micromolar, 48 h
From the text: (§1) Analog 10 was screened utilizing 60 different human tumor cell lines, representing leukemia, melanoma and cancers of the lung, colon, brain, ovary, breast, prostate, and kidney in order to show selective growth inhibition or cell killing of particular tumor cell lines. This screen is unique in that the complexity of a 60 cell line dose response produced by a given compound results in a biological response pattern which can be utilized in pattern recognition algorithms (COMPARE program. See: http://dtp.nci.nih.gov/docs/compare/compare.html). Using these algorithms, it is possible to assign a putative mechanism of action to a test compound, or to determine that the response pattern is unique and not similar to that of any of the standard prototype compounds included in the NCI database. In addition, following characterization of various cellular molecular targets in the 60 cell lines, it may be possible to select compounds most likely to interact with a specific molecular target.
(§2) The screening is a two-stage process, beginning with the evaluation of the compound against the 60 cell lines at a single dose of 10 uM.
(§3) The human tumor cell lines of the cancer screening panel are grown in RPMI 1640 medium containing 5% fetal bovine serum and 2 mM L-glutamine. For a typical screening experiment, cells are inoculated into 96 well microtiter plates in 100 μL at plating densities ranging from 5,000 to 40,000 cells/well depending on the doubling time of individual cell lines. After cell inoculation, the microtiter plates are incubated at 37° C., 5% CO2, 95% air and 100% relative humidity for 24 h prior to addition of experimental drug.
(§4) After 24 h, two plates of each cell line are fixed in situ with TCA, to represent a measurement of the cell population for each cell line at the time of drug addition (Tz). Experimental drugs are solubilized in dimethyl sulfoxide at 400-fold the desired final maximum test concentration and stored frozen prior to use. At the time of drug addition, an aliquot of frozen concentrate is thawed and diluted to twice the desired final maximum test concentration with complete medium containing 50 μg/ml gentamicin.
(§5) Following drug addition, the plates are incubated for an additional 48 h at 37° C., 5% CO2, 95% air, and 100% relative humidity. For adherent cells, the assay is terminated by the addition of cold TCA. Cells are fixed in situ by the gentle addition of […] of cold 50% (w/v) TCA (final concentration, 10% TCA) and incubated for 60 minutes at 4° C. The supernatant is discarded, and the plates are washed five times with tap water and air dried. Sulforhodamine B (SRB) solution (100 μl) at 0.4% (w/v) in 1% acetic acid is added to each well, and plates are incubated for 10 minutes at room temperature. After staining, unbound dye is removed by washing five times with 1% acetic acid and the plates are air dried. Bound stain is subsequently solubilized with 10 mM trizma base, and the absorbance is read on an automated plate reader at a wavelength of 515 nm. For suspension cells, the methodology is the same except that the assay is terminated by fixing settled cells at the bottom of the wells by gently adding 50 μl of 80% TCA (final concentration, 16% TCA). Using the absorbance measurements [time zero, (Tz), control growth, (C), and test growth in the presence of drug (Ti)], the percentage growth is calculated.

EKVX = experiment: NCI 60 cell line single dose screen; conditions: EKVX (Non-Small Cell Lung Cancer), 10 micromolar, 48 h
From the text: as §1, §2, §3, §4, §5

HS 578T = experiment: NCI 60 cell line single dose screen; conditions: HS 578T (Breast Cancer), 10 micromolar, 48 h
From the text: as §1, §2, §3, §4, §5

MDA-MB-468 = experiment: NCI 60 cell line single dose screen; conditions: MDA-MB-468 (Breast Cancer), 10 micromolar, 48 h
From the text: as §1, §2, §3, §4, §5

NCI-H322M = experiment: NCI 60 cell line single dose screen; conditions: NCI-H322M (Non-Small Cell Lung Cancer), 10 micromolar, 48 h
From the text: as §1, §2, §3, §4, §5

NCI/ADR-RES = experiment: NCI 60 cell line single dose screen; conditions: NCI/ADR-RES (Ovarian Cancer), 10 micromolar, 48 h
From the text: as §1, §2, §3, §4, §5

OVCAR-5 = experiment: NCI 60 cell line single dose screen; conditions: OVCAR-5 (Ovarian Cancer), 10 micromolar, 48 h
From the text: as §1, §2, §3, §4, §5

OVCAR-8 = experiment: NCI 60 cell line single dose screen; conditions: OVCAR-8 (Ovarian Cancer), 10 micromolar, 48 h
From the text: as §1, §2, §3, §4, §5

PC-3 = experiment: NCI 60 cell line single dose screen; conditions: PC-3 (Prostate Cancer), 10 micromolar, 48 h
From the text: as §1, §2, §3, §4, §5

RPMI-8226 = experiment: NCI 60 cell line single dose screen; conditions: RPMI-8226 (Leukemia), 10 micromolar, 48 h
From the text: as §1, §2, §3, §4, §5

SF-295 = experiment: NCI 60 cell line single dose screen; conditions: SF-295 (CNS Cancer), 10 micromolar, 48 h
From the text: as §1, §2, §3, §4, §5

SK-MEL-28 = experiment: NCI 60 cell line single dose screen; conditions: SK-MEL-28 (Melanoma), 10 micromolar, 48 h
From the text: as §1, §2, §3, §4, §5

SK-MEL-2 = experiment: NCI 60 cell line single dose screen; conditions: SK-MEL-2 (Melanoma), 10 micromolar, 48 h
From the text: as §1, §2, §3, §4, §5

U251 = experiment: NCI 60 cell line single dose screen; conditions: U251 (CNS Cancer), 10 micromolar, 48 h
From the text: as §1, §2, §3, §4, §5

UACC-62 = experiment: NCI 60 cell line single dose screen; conditions: UACC-62 (Melanoma), 10 micromolar, 48 h
From the text: as §1, §2, §3, §4, §5

For `COCCC(=O)NC[C@H](O)[C@H](C)C(=O)NCCC[C@H]1O[C@@]2(CCC[C@@H](CC[C@H](C)/C=C(\C)[C@H](C)O)O2)CCC1C` (stereo partly shown) [Analog 10], the “concentration giving complete growth inhibition” value (A549 cells) was 5 µM, the “Growth Percent” value (CCRF-CEM) was 24.00% and the “Growth Percent” value (EKVX) was 29.10%. The “Growth Percent” value (HS 578T) was 46.51%, the “Growth Percent” value (MDA-MB-468) was 29.03% and the “Growth Percent” value (NCI-H322M) was 113.58%. The “Growth Percent” value (NCI/ADR-RES) was 88.16%, the “Growth Percent” value (OVCAR-5) was 61.79% and the “Growth Percent” value (OVCAR-8) was 90.22%. For the same compound, the “Growth Percent” value (PC-3) was 66.25%, the “Growth Percent” value (RPMI-8226) was 58.70% and the “Growth Percent” value (SF-295) was 13.26%. For the same compound, the “Growth Percent” value (SK-MEL-28) was 71.16%, the “Growth Percent” value (SK-MEL-2) was 53.99% and the “Growth Percent” value (U251) was 50.08%. For the same compound, the “Growth Percent” value (UACC-62) was 48.46%.
